Results from patent US7595401B2, “Therapeutic compounds and their use in cancer” (Myriad Pharmaceuticals, Inc., priority 2006, dated 2009).

system: purified human Hsp90; assay: Binding Assay: fluorescence polarization with BODIPY-labeled geldanamycin; details: 5 μM compound, BODIPY-GM 10 nM, Hsp90 30 nM
In short: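 Compounds in 2% DMSO final compete with 10 nM BODIPY-GM for 30 nM purified human Hsp90, incubated overnight at room temperature in pH 7.3 HEPES buffer containing Na2MoO4 and DTT. Polarization (mP, ex/em 485/530) normalized to DMSO gives percent inhibition; autofluorescence-confounded data excluded.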

Structure (SMILES)	% Inhibition at 5 μM Compound Concentration
Nc1ncn(CCn2ccnc2)c2nc(Sc3cc4c(cc3Br)OCO4)nc1-2 [Example 380, 8-[(6-Bromo-1,3-benzodioxol-5-yl)thio]-3-[2-(1H-imidazol-1-yl)ethyl]-3H-purin-6-amine]	4%
CC(C)(C)OC(=O)N1CCCC[C@H]1CCn1cnc(N)c2nc(Sc3cc4c(cc3Br)OCO4)nc1-2 [Example 417, tert-Butyl (2S)-2-(2-{6-amino-8-[(6-bromo-1,3-benzodioxol-5-yl)thio]-3H-purin-3-yl}ethyl)piperidine-1-carboxylate]	0%
CCC(C)C(Cn1cnc(N)c2nc(Sc3cc(OC)ccc3OC)nc1-2)c1ccccc1 (stereo not drawn) [Example 106, 8-(2,5-dimethoxy-phenylsulfanyl)-3-(3-methyl-2-phenyl-pentyl)-3H-purin-6-ylamine]	41%
COc1ccc(OC)c(Sc2nc3c(N)ncn(CCc4cccc(Cl)c4Cl)c-3n2)c1 [Example 74, 3-[2-(2,3-dichloro-phenyl)-ethyl]-8-(2,5-dimethoxy-phenylsulfanyl)-3H-purin-6-ylamine]	0%
Nc1ncn(Cc2ccccc2)c2nc(Sc3cc4c(cc3Br)OCO4)nc1-2 [Example 265, 3-Benzyl-8-[(6-bromo-1,3-benzodioxol-5-yl)thio]-3H-purin-6-amine]	20%
Nc1ncn(CCC2CCCN(S(=O)(=O)C(F)(F)F)C2)c2nc(Sc3cc4c(cc3Br)OCO4)nc1-2 (stereo not drawn) [Example 403, 8-[(6-Bromo-1,3-benzodioxol-5-yl)thio]-3-(2-{1-[(trifluoromethyl)sulfonyl]piperidin-3-yl}ethyl)-3H-purin-6-amine]	14%
COc1ccc(OC)c(Sc2nc3c(N)ncn(CCc4cc(F)cc(F)c4)c-3n2)c1 [Example 144, 3-[2-(3,5-difluoro-phenyl)-ethyl]-8-(2,5-dimethoxy-phenylsulfanyl)-3H-purin-6-ylamine]	0%
CC(C)NC(=O)N1CCC(CCn2cnc(N)c3nc(Sc4cc5c(cc4Br)OCO5)nc2-3)CC1 [Example 439, 4-(2-{6-Amino-8-[(6-bromo-1,3-benzodioxol-5-yl)thio]-3H-purin-3-yl}ethyl)-N-isopropylpiperidine-1-carboxamide]	24%
CC(C)(NCCn1cnc(N)c2nc(Sc3cc4c(cc3Br)OCO4)nc1-2)c1ccccn1 [Example 333, 8-[(6-Bromo-1,3-benzodioxol-5-yl)thio]-3-{2-[(1-methyl-1-pyridin-2-ylethyl)amino]ethyl}-3H-purin-6-amine]	43.0%
COc1ccc(OC)c(Sc2nc3c(N)ncnc3n2CCc2cccc3ccccc23)c1 [Example 67, 8-(2,5-Dimethoxy-phenylsulfanyl)-9-(2-naphthalen-1-yl-ethyl)-9H-purin-6-ylamine]	56%
COc1ccc(OC)c(Sc2nc3c(N)ncn(CCc4cccc5ccccc45)c-3n2)c1 [Example 68, 8-(2,5-dimethoxy-phenylsulfanyl)-3-(2-naphthalen-1-yl-ethyl)-3H-purin-6-ylamine]	0%

The remaining lines, values ahead:

% Inhibition at 5 μM Compound Concentration	Structure (SMILES)
43.00%	COc1ccc(CN2CCC(CCn3cnc(N)c4nc(Sc5cc6c(cc5Br)OCO6)nc3-4)CC2)cc1 [Example 595, 8-[(6-Bromo-1,3-benzodioxol-5-yl)thio]-3-{2-[1-(4-methoxybenzyl)piperidin-4-yl]ethyl}-3 H-purin-6-amine]
0.00%	CC(=O)N1CCC(CCn2cnc(N)c3nc(Sc4nc5ccc([N+](=O)[O-])cc5s4)nc2-3)CC1 [Example 652, 3-[2-(1-Acetylpiperidin-4-yl)ethyl]-8-[(6-nitro-1,3-benzothiazol-2-yl)thio]-3H-purin-6-amine]
6%	COc1ccc(OC)c(Sc2nc3c(N)ncn(CCN4CCN(C5CCCC5)CC4)c-3n2)c1 [Example 495, 3-[2-(4-Cyclopentylpiperazin-1-yl)ethyl]-8-[(2,5-dimethoxyphenyl)thio]-3 H-purin-6-amine]
0%	COc1ccc(OC)c(Sc2nc3c(N)ncn(CCC(NC(=O)OC(C)(C)C)C4CC4)c-3n2)c1 (stereo not drawn) [Example 665, tert-Butyl(3-{6-amino-8-[(2,5-dimethoxyphenyl)thio]-3H-purin-3-yl}-1-cyclopropylpropyl)carbamate]
5%	CC(C)(C)OC(=O)NC(CCn1cnc(N)c2nc(Sc3cc4c(cc3Br)OCO4)nc1-2)C1CCOCC1 (stereo not drawn) [Example 683, [3-[6-Amino-8-(6-bromo-benzo[1,3]dioxol-5-ylsulfanyl)-9H-purin-3-yl]-1-(tetrahydro-pyran-4-yl)-propyl]-carbamic acid tert-butyl ester]
83.00%	N=C(N)N1CCC(CCn2cnc(N)c3nc(Sc4cc5c(cc4Br)OCO5)nc2-3)CC1 [Example 617, 4-(2-{6-Amino-8-[(6-bromo-1,3-benzodioxol-5-yl)thio]-3 H-purin-3-yl}ethyl)piperidine-1-carboximidamide]
0%	CC(C)(C)OC(=O)NC(CCn1cnc(N)c2nc(Sc3cc4c(cc3Br)OCO4)nc1-2)C1CCC1 (stereo not drawn) [Example 673, tert-Butyl(3-{6-amino-8-[(6-bromo-1,3-benzodioxol-5-yl)thio]-3H-purin-3-yl}-1-cyclobutylpropyl)carbamate]

same assay, conditions: BODIPY-GM 10 nM, Hsp90 30 nM

Structure (SMILES)	IC50
COc1cc(I)c(Sc2nc3c(N)ncnc3n2CCc2ccccc2Cl)cc1OC [Example 261, 9-[2-(2-Chlorophenyl)ethyl]-8-[(2-iodo-4,5-dimethoxyphenyl)thio]-9H-purin-6-amine]	> 25 µM
CC(C)(C)OC(=O)N1CCCC[C@H]1CCn1c(Sc2cc3c(cc2Br)OCO3)nc2c(N)ncnc21 [Example 416, tert-Butyl (2S)-2-(2-{6-amino-8-[(6-bromo-1,3-benzodioxol-5-yl)thio]-9H-purin-9-yl}ethyl)piperidine-1-carboxylate]	0.2 µM
Nc1ncnc2c1nc(Sc1cc3c(cc1Br)OCO3)n2CCc1ccc(F)cc1 [Example 249, 8-[(6-Bromo-1,3-benzodioxol-5-yl)thio]-9-[2-(4-fluorophenyl)ethyl]-9H-purin-6-amine]	0.1 µM
COc1ccc(OC)c(Sc2nc3c(N)ncnc3n2CCc2ccccc2)c1 [Example 1, 8-(2,5-Dimethoxy-phenylsulfanyl)-9-phenethyl-9H-purin-6-ylamine]	0.34 µM
COc1ccc(OC)c(Sc2nc3c(N)ncnc3n2CCc2cccc(C(F)(F)F)c2)c1 [Example 79, 8-(2,5-Dimethoxy-phenylsulfanyl)-9-[2-(3-trifluoromethyl-phenyl)-ethyl]-9H-purin-6-ylamine]	0.3 µM
COc1cc(Sc2nc3c(N)nc(F)nc3n2CCc2ccccc2Cl)cc(OC)c1OC [Example 237, 9-[2-(2-Chlorophenyl)ethyl]-2-fluoro-8-[(3,4,5-trimethoxyphenyl)thio]-9H-purin-6-amine]	> 25 µM
COc1ccc(OC)c(Sc2nc3c(N)ncnc3n2CCc2cccc3ccccc23)c1 [Example 67, 8-(2,5-Dimethoxy-phenylsulfanyl)-9-(2-naphthalen-1-yl-ethyl)-9H-purin-6-ylamine]	1.5 µM
Nc1ncnc2c1nc(Sc1cc3c(cc1Br)OCO3)n2CCc1ccccc1 [Example 13, 8-(6-Bromo-benzo[1,3]dioxol-5-ylsulfanyl)-9-phenethyl-9H-purin-6-ylamine]	0.045 µM
CC(C)(C)OC(=O)N1CCCC[C@@H]1CCn1c(Sc2cc3c(cc2Br)OCO3)nc2c(N)ncnc21 [Example 394, tert-Butyl (2R)-2-(2-{6-amino-8-[(6-bromo-1,3-benzodioxol-5-yl)thio]-9H-purin-9-yl}ethyl)piperidine-1-carboxylate]	0.7 µM
CS(=O)(=O)N1CCC(CCn2c(Sc3cc4c(cc3Br)OCO4)nc3c(N)ncnc32)CC1 [Example 378, 8-[(6-Bromo-1,3-benzodioxol-5-yl)thio]-9-{2-[1-(methylsulfonyl)piperidin-4-yl]ethyl}-9H-purin-6-amine]	0.24 µM

Next, values leading:

IC50	Structure (SMILES)
0.059 µM	C[C@H](NC(=O)OC(C)(C)C)C(=O)N1CCC(CCn2c(Sc3cc4c(cc3Br)OCO4)nc3c(N)ncnc32)CC1 [Example 693, [(S)-2-(4-{2-[6-Amino-8-(6-bromo-benzo[1,3]dioxol-5-ylsulfanyl) -purin-9-yl]-ethyl}-piperidin-1-yl)-1-methyl-2-oxo-ethyl]-carbamic acid tert-butyl ester]
1.5 µM	CC(C)(C)C(=O)N1CCN(CCn2c(Sc3cc4c(cc3Br)OCO4)nc3c(N)ncnc32)CC1 [Example 633, 8-[(6-Bromo-1,3-benzodioxol-5-yl)thio]-9-{2-[4-(2,2-dimethylpropanoyl)piperazin-1-yl]ethyl}-9 H-purin-6-amine]
> 5 µM	CC(=O)N1CCC(CCn2c(Sc3ccc4c(c3)OC(F)(F)O4)nc3c(N)ncnc32)CC1 [Example 571, 9-[2-(1-Acetylpiperidin-4-yl)ethyl]-8-[(2,2-difluoro-1,3-benzodioxol-5-yl)thio]-9 H-purin-6-amine]
1.8 µM	Nc1ncnc2c1nc(Sc1cc3c(cc1Br)OCO3)n2CCNc1cccc2cccnc12 [Example 574, N-(2-{6-Amino-8-[(6-bromo-1,3-benzodioxol-5-yl)thio]-9 H-purin-9-yl}ethyl)quinolin-8-amine]
7 µM	C=Cn1c(S(=O)(=O)c2cc(OC)ccc2OC)nc2c(N)ncnc21 [Example 486, 8-(2,5-dimethoxy-phenylsulfonyl)-9-vinyl-9H -purin-6-ylamine]
0.29 µM	Nc1ncnc2c1nc(Sc1cc3c(cc1Br)OCO3)n2CCC(N)C1CCCCC1 (stereo not drawn) [Example 690, 9-(3-Amino-3-cyclohexylpropyl)-8-[(6-bromo-1,3-benzodioxol-5-yl)thio]-9H-purin-6-amine]
0.059 µM	Nc1ncnc2c1nc(Sc1cc3c(cc1Br)OCO3)n2CCC1CCN(C(=O)[C@@H]2CCCN2)CC1 [Example 753, 8-[(6-Bromo-1,3-benzodioxol-5-yl)thio]-9-[2-(1-L-prolyl-piperidin-4-yl)ethyl]-9H-purin-6-amine]
0.16 µM	CC(C)[C@@H]1C[C@H](CCn2c(Sc3cc4c(cc3Br)OCO4)nc3c(N)ncnc32)CCN1 (relative stereo) [Example 480, 8-[(6-bromo-1,3-benzodioxol-5-yl)thio]-9-{2-[cis-2-isopropylpiperidin-4-yl]ethyl}-9 H-purin-6-amine]
